Experiments:
Assay in all cases: relative viability (nuclei count vs DMSO), 5 days (fraction); higher = more cells survive
Erlotinib + Decitabine = compound: C#Cc1cccc(Nc2ncnc3cc(OCCOC)c(OCCOC)cc23)c1 [Erlotinib] + Nc1ncn([C@H]2C[C@H](O)[C@@H](CO)O2)c(=O)n1 [Decitabine] (partner 2 µM)
Procedure, shortened: (§1)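 Lung cancer cell lines were seeded in 1536-well plates and dosed by pin tool the next day, with either a single drug or a fixed anchor-drug dose combined with five library-drug doses (not always all listed) spaced in √10 steps. Five days later, one step fixed the cells and stained their nuclei (final 0.05% Triton X-100, 1% formaldehyde, 1 ug/ml Hoechst), and nuclei were counted on 4× images. Relative viability is the nuclei count in treated wells divided by the count in vehicle wells, and each value is the median of duplicate plates.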

AT9283 + Palbociclib = compound: O=C(Nc1c[nH]nc1-c1nc2ccc(CN3CCOCC3)cc2[nH]1)NC1CC1 [AT9283] + CC(=O)c1c(C)c2cnc(Nc3ccc(N4CCNCC4)cn3)nc2n(C2CCCC2)c1=O [Palbociclib] (partner 0.5 µM)
Procedure, shortened: as §1

AT9283 + Pictilisib = compound: O=C(Nc1c[nH]nc1-c1nc2ccc(CN3CCOCC3)cc2[nH]1)NC1CC1 [AT9283] + CS(=O)(=O)N1CCN(Cc2cc3nc(-c4cccc5[nH]ncc45)nc(N4CCOCC4)c3s2)CC1 [Pictilisib] (partner 1 µM)
Procedure, shortened: as §1

Erlotinib + Pemetrexed = compound: C#Cc1cccc(Nc2ncnc3cc(OCCOC)c(OCCOC)cc23)c1 [Erlotinib] + Nc1nc2[nH]cc(CCc3ccc(C(=O)N[C@@H](CCC(=O)O)C(=O)O)cc3)c2c(=O)[nH]1 [Pemetrexed] (partner 0.2 µM)
Procedure, shortened: as §1

AT9283 + AZD7762 = compound: O=C(Nc1c[nH]nc1-c1nc2ccc(CN3CCOCC3)cc2[nH]1)NC1CC1 [AT9283] + NC(=O)Nc1cc(-c2cccc(F)c2)sc1C(=O)N[C@H]1CCCNC1 [AZD7762] (partner 0.2 µM)
Procedure, shortened: as §1

| Cell Line | relative viability (Erlotinib + Decitabine; first compound 0.02 µM) | relative viability (Erlotinib + Decitabine; first compound 0.2 µM) | relative viability (Erlotinib + Decitabine; first compound 0.6325 µM) | relative viability (Erlotinib + Decitabine; first compound 2 µM) | relative viability (AT9283 + Palbociclib; first compound 0.003 µM) | relative viability (AT9283 + Palbociclib; first compound 0.03 µM) | relative viability (AT9283 + Palbociclib; first compound 0.09487 µM) | relative viability (AT9283 + Palbociclib; first compound 0.3 µM) | relative viability (AT9283 + Pictilisib; first compound 0.003 µM) | relative viability (AT9283 + Pictilisib; first compound 0.03 µM) | relative viability (AT9283 + Pictilisib; first compound 0.09487 µM) | relative viability (AT9283 + Pictilisib; first compound 0.3 µM) | relative viability (Erlotinib + Pemetrexed; first compound 0.02 µM) | relative viability (Erlotinib + Pemetrexed; first compound 0.2 µM) | relative viability (Erlotinib + Pemetrexed; first compound 0.6325 µM) | relative viability (Erlotinib + Pemetrexed; first compound 2 µM) | relative viability (AT9283 + AZD7762; first compound 0.003 µM) | relative viability (AT9283 + AZD7762; first compound 0.03 µM) | relative viability (AT9283 + AZD7762; first compound 0.09487 µM) | relative viability (AT9283 + AZD7762; first compound 0.3 µM) |
| --- | --- | --- | --- | --- | --- | --- | --- | --- | --- | --- | --- | --- | --- | --- | --- | --- | --- | --- | --- | --- |
| NCI-H838 | 0.507 | 0.48 | 0.488 | 0.465 | 0.257 | 0.227 | 0.154 | 0.138 | 0.544 | 0.265 | 0.182 | 0.216 | 0.263 | 0.253 | 0.233 | 0.266 | 0.968 | 0.705 | 0.612 | 0.655 |
| NCI-H1355 | 0.394 | 0.315 | 0.322 | 0.341 | 0.395 | 0.404 | 0.376 | 0.152 | 0.435 | 0.345 | 0.168 | 0.159 | 1.06 | 0.995 | 1.03 |  | 0.9 | 0.568 | 0.602 | 0.23 |
| NCI-H1395 | 0.816 | 0.726 | 0.807 | 0.678 | 0.597 | 0.598 | 0.397 | 0.305 | 0.583 | 0.474 | 0.388 | 0.399 | 0.807 | 0.959 | 0.868 | 0.794 | 0.411 | 0.361 | 0.333 | 0.335 |
| NCI-H1437 | 0.575 | 0.57 | 0.598 | 0.514 | 0.319 | 0.354 | 0.206 | 0.193 | 0.439 | 0.468 | 0.12 | 0.126 | 0.33 | 0.33 | 0.395 | 0.27 | 1.11 | 0.98 | 0.431 | 0.291 |
| NCI-H1651 | 0.623 | 0.438 | 0.644 | 0.524 | 0.476 | 0.502 | 0.534 | 0.237 | 0.59 | 0.572 | 0.24 | 0.255 | 0.619 | 0.417 | 0.509 | 0.52 | 0.43 | 0.441 | 0.403 | 0.213 |
| NCI-H1666 |  |  | 0.557 | 0.458 | 0.619 | 0.691 | 0.524 | 0.534 | 0.351 | 0.326 | 0.267 | 0.274 | 0.81 | 0.693 |  | 0.753 | 0.817 | 0.685 | 0.733 | 0.491 |
| NCI-H1734 | 0.488 | 0.485 | 0.463 | 0.509 | 0.336 | 0.281 | 0.227 | 0.233 | 0.406 | 0.271 | 0.299 | 0.221 | 0.45 | 0.39 | 0.4 | 0.397 | 0.533 | 0.274 | 0.225 | 0.245 |
| NCI-H1755 | 0.725 | 0.75 | 0.741 | 0.764 | 0.434 | 0.463 | 0.469 | 0.499 | 0.437 | 0.395 | 0.296 | 0.261 | 0.477 | 0.398 | 0.402 | 0.368 | 0.466 | 0.401 | 0.326 | 0.267 |
| NCI-H1792 | 0.634 | 0.482 | 0.505 | 0.477 | 0.607 | 0.661 | 0.623 | 0.399 | 0.215 | 0.334 | 0.0902 | 0.0932 | 1.05 | 0.629 | 1.02 | 0.51 | 0.601 | 0.647 | 0.432 | 0.262 |
| NCI-H1793 | 0.492 | 0.443 | 0.328 | 0.343 | 0.275 | 0.329 | 0.298 | 0.255 | 0.317 | 0.331 | 0.183 | 0.196 | 1.01 | 0.441 | 0.825 | 0.52 | 0.564 | 0.495 | 0.233 | 0.185 |
| NCI-H1915 | 0.288 | 0.266 | 0.272 | 0.269 | 0.545 | 0.51 | 0.254 | 0.153 | 0.854 | 0.95 | 0.293 | 0.178 | 0.532 | 0.482 | 0.434 | 0.487 | 0.617 | 0.548 | 0.334 | 0.222 |
| NCI-H1944 | 0.43 | 0.382 | 0.37 | 0.372 | 0.336 | 0.241 | 0.188 | 0.172 | 0.327 | 0.307 | 0.221 | 0.224 | 0.586 | 0.506 | 0.536 | 0.358 | 0.594 | 0.246 | 0.184 | 0.125 |
| NCI-H1975 | 0.431 | 0.402 | 0.409 | 0.332 | 0.526 | 0.676 | 0.531 | 0.324 | 0.26 | 0.179 | 0.18 | 0.165 | 0.288 | 0.294 | 0.292 | 0.263 | 0.7 | 0.711 | 0.622 | 0.458 |
| NCI-H1993 | 0.602 | 0.483 | 0.553 | 0.531 | 0.597 | 0.665 | 0.534 | 0.34 | 0.841 | 0.748 | 0.934 | 0.661 | 0.63 | 0.466 | 0.544 | 0.564 | 0.822 | 0.745 | 0.469 | 0.326 |
| NCI-H2085 | 0.573 | 0.585 | 0.531 | 0.496 | 0.498 | 0.473 | 0.413 | 0.319 | 0.404 | 0.417 | 0.19 | 0.196 | 0.867 | 0.695 | 0.716 | 0.474 | 0.968 | 0.969 | 0.749 | 0.353 |
| NCI-H2087 | 0.286 | 0.238 | 0.282 | 0.208 | 0.218 | 0.234 | 0.117 | 0.121 | 0.677 | 0.413 | 0.21 | 0.208 | 0.753 | 0.704 | 0.728 | 0.701 | 1.35 | 0.686 | 0.348 | 0.244 |
| NCI-H2126 | 0.569 | 0.537 | 0.437 | 0.493 | 0.341 | 0.35 | 0.365 | 0.272 | 0.48 | 0.493 | 0.375 | 0.26 | 0.717 | 0.6 | 0.415 | 0.376 | 0.979 | 1.05 | 0.969 | 0.339 |
| NCI-H2170 | 0.542 | 0.492 | 0.505 | 0.419 | 0.446 | 0.37 | 0.198 | 0.148 | 0.309 | 0.234 | 0.176 | 0.151 | 0.275 | 0.261 | 0.242 | 0.237 | 0.794 | 0.485 | 0.162 | 0.153 |
| NCI-H2347 | 0.633 | 0.642 | 0.589 | 0.576 | 0.444 | 0.515 | 0.475 | 0.346 | 0.726 | 1.23 | 0.568 | 0.385 | 0.454 | 0.401 | 0.439 | 0.409 | 0.781 | 0.676 | 0.324 | 0.341 |
| NCI-H2405 |  | 0.706 | 0.647 | 0.629 | 0.519 | 0.407 | 0.284 | 0.196 | 0.463 | 0.384 | 0.254 | 0.145 | 0.893 | 1.1 | 1.06 | 1.09 | 0.771 | 0.566 | 0.208 | 0.163 |
| NCI-H3122 | 0.533 | 0.402 | 0.443 | 0.386 | 0.187 | 0.208 | 0.169 | 0.153 | 0.602 | 0.41 | 0.271 | 0.217 | 0.215 | 0.186 | 0.179 | 0.168 | 0.958 | 0.917 | 0.363 | 0.17 |
| PC-3 [JPC-3] | 0.842 | 0.446 | 0.429 | 0.431 | 0.602 | 0.533 | 0.575 | 0.484 | 0.673 | 0.631 | 0.542 | 0.376 | 0.719 | 0.477 | 0.488 | 0.37 | 0.826 | 0.741 | 0.609 | 0.394 |
| PC-14 | 0.194 | 0.142 | 0.151 | 0.145 | 0.526 | 0.273 | 0.105 | 0.0809 | 0.534 | 0.657 | 0.0566 | 0.0616 | 0.11 | 0.168 | 0.15 | 0.133 | 0.341 | 0.371 | 0.206 | 0.0832 |
| RERF-LC-KJ | 0.638 | 0.62 | 0.649 | 0.582 | 1.17 | 0.77 | 0.475 | 0.302 | 0.627 | 0.24 | 0.171 | 0.164 | 0.461 | 0.457 | 0.444 | 0.44 | 0.836 | 0.578 | 0.387 | 0.243 |
